Source: patent publication US20130067616A1, “Plant Defensive Peptides” (priority 2010, published 2013)
Ends that are not written are not given here.

Columns and labels:
Rhizoctonia solani = assay: Inhibitory concentrations of antimicrobial peptides and antibiotics against Rhizoctonia solani in vitro; type: cell-based; set-up: MIC, minimum concentration that completely inhibits growth of fungal cells: unit: μM; conditions: for IC50: ± std, read-out: IC50, concentration that inhibits 50% growth of fungal cultures vs control
[1] = system: phytopathogenic bacteria and fungi; assay: Antibacterial and antifungal resistance of Arabidopsis expressing antimicrobial peptides; type: in vivo; conditions: carbonic anhydrase promoter, rice endochitinase signal peptide
Text: Including the acidic peptide is thus a preferred aspect of practicing the invention, although it may not be required. Tagging the βPTH precursor with EGFP greatly impaired antimicrobial activity in the mature peptide, even though EGFP was fused to the C-terminus of the acidic protein, the portion that was post-translationally cleaved.

fungal cultures = conditions: literature values (Thevissen et al. 1996; Oard et al. 2004); read-out: IC50, concentration of a peptide that inhibits 50% growth of fungal cultures relative to control; cited from earlier work
[2] = system: Neurospora crassa and Saccharomyces cerevisiae; set-up: dose or concentration left out as unconfirmed; conditions: concentration as low as; cited from earlier work

With `CC[C@H](C)[C@H](NC(=O)CN)C(=O)NCC(=O)N[C@@H](C)C(=O)N[C@H](C(=O)N[C@@H](CC(C)C)C(=O)N[C@@H](CCCCN)C(=O)N[C@H](C(=O)N[C@@H](CC(C)C)C(=O)N[C@H](C(=O)N[C@H](C(=O)NCC(=O)N[C@@H](CC(C)C)C(=O)N1CCC[C@H]1C(=O)N[C@@H](C)C(=O)N[C@@H](CC(C)C)C(=O)N[C@H](C(=O)N[C@@H](CO)C(=O)N[C@@H](Cc1c[nH]c2ccccc12)C(=O)N[C@H](C(=O)N[C@@H](CCCCN)C(=O)N[C@@H](CCCNC(=N)N)C(=O)N[C@@H](CCCCN)C(=O)N[C@@H](CCCNC(=N)N)C(=O)N[C@@H](CCC(N)=O)C(=O)N[C@@H](CCC(N)=O)C(N)=O)[C@@H](C)CC)[C@@H](C)CC)[C@@H](C)O)[C@@H](C)O)C(C)C)C(C)C` [Melittin] the “MIC, minimum concentration that completely inhibits growth of fungal cells” value (Rhizoctonia solani) was 13.1 µmol and the IC50 (Rhizoctonia solani) was 7.1 ± 0.6 µM.

In the case of `C[C@@H]([C@H](N)C(=O)N[C@H](C(=O)O)[C@H]1O[C@@H](n2ccc(=O)[nH]c2=O)[C@H](O)[C@@H]1O)[C@H](O)c1ccc(O)cn1` [Nikkomycin Z], the “MIC, minimum concentration that completely inhibits growth of fungal cells” value (Rhizoctonia solani) is reported as 4.5 µmol and the IC50 (Rhizoctonia solani) is reported as 0.86 ± 0.1 µM.

In the case of `C[C@@H]1[C@H](O)[C@@H](C)/C=C/C=C/CC/C=C/C=C/C=C/C=C/C(O[C@H]2O[C@H](C)[C@@H](O)[C@H](N)[C@@H]2O)CC2O[C@](O)(CC(O)C(O)CCC(O)CC(O)CC(O)CC(=O)O[C@H]1C)CC(O)C2C(=O)O` (some centres unmarked) [Nystatin], the “MIC, minimum concentration that completely inhibits growth of fungal cells” value (Rhizoctonia solani) is reported as 5.2 µmol and the IC50 (Rhizoctonia solani) is reported as 1.1 ± 0.3 µM.

With “Cecropin B (KWKVFKKIEKMGRNIRNGIVKAGPAIAVLGEAKAL; ends and bridges not checked; UniProt P01508 27-61, looked up) [natural 35-residue peptide from the Cecropia moth]” the “MIC, minimum concentration that completely inhibits growth of fungal cells” value (Rhizoctonia solani) was 9.8 µmol, the IC50 (Rhizoctonia solani) was 4.6 ± 0.3 µM and the “Antimicrobial resistance in vivo of Arabidopsis expressing the peptide” value [1] was “only antibacterial activity, not antifungal activity”.

For Magainin II, the “MIC, minimum concentration that completely inhibits growth of fungal cells” value (Rhizoctonia solani) was 30.2 µmol and the IC50 (Rhizoctonia solani) was 15.7 ± 0.9 µM.

In the case of “α-Hordothionin (KSCCRSTLGRNCYNLCRVRGAQKLCAGVCRCKLTSSGKCPTGFPK) [barley seed-specific thionin, GenBank X05901]”, the IC50 (fungal cultures) is listed as 1 µM.

For α-purothionin, the “Inhibition of fungal growth” value [2] is given as “up to 50%”.

For β-Purothionin [βPTH], the “MIC, minimum concentration that completely inhibits growth of fungal cells” value (Rhizoctonia solani) is listed as 5.02 µmol, the IC50 (Rhizoctonia solani) is listed as 1.14 ± 0.4 µM and the IC50 (fungal cultures) is listed as 1.1 µM. The “Antimicrobial resistance in vivo of Arabidopsis expressing the peptide” value [1] was “the greatest antibacterial and antifungal resistance”.
